Entries after “also recorded” stand apart in the source; their conditions may differ.
Key:
Assay type in all cases: in vivo, mouse
[1] = system: PPAR-δ target genes; experiment: PPAR-δ target gene and protein expression in flow sorted ISCs and progenitors (qRT-PCR, immunoblot, RNA-seq); conditions: GW501516 for 4 weeks, protein level
Description: Antibodies: rabbit polyclonal anti-PPAR-δ (1:100, Thermo PA1-823A), rabbit polyclonal anti-Cpt1a (1:250, ProteinTech 15184-1-AP), rabbit polyclonal anti-HMGCS2 (1:500, Sigma AV41562), rabbit monoclonal anti-FABP1 (1:1000, Abcam ab129203), rabbit polyclonal anti-γ-tubulin (1:1000, Sigma T5192). Lgr5-GFP^hi ISCs or GFP^low progenitors were sorted directly into sample buffer and boiled for five minutes. Samples were resolved by SDS-PAGE and analyzed by immunoblotting with goat anti-rabbit IgG-HRP secondary antibodies (1:10,000, Santa Cruz Biotechnology sc-2054) and Western Lightning Plus-ECL detection kit (Perkin Elmer, NEL 104001EA).
Cells were sorted into Tri Reagent (Life Technologies) and total RNA was isolated according to the manufacturer's instructions with following modification: the aqueous phase containing total RNA was purified using RNeasy plus kit (Qiagen). RNA was converted to eDNA with cDNA synthesis kit (Bio-Rad). qRT-PCR was performed with SYBR green master mix (Bio-Rad) on Bio-Rad iCycler RT-PCR detection system. Primers used are listed on Table 4 below.
RNA Isolation. […] From the total RNA, poly(A)^+ RNA was selected using Oligo(dT)25-Dynabeads (Life technologies) according to the manufacturer's protocol.

[2] = system: Lgr5-GFP^hi ISCs and Lgr5-GFP^low progenitors; experiment: Flow cytometry enumeration of Lgr5-GFP^hi ISCs and Lgr5-GFP^low progenitors in Lgr5-EGFP-IRES-CreERT2 mice; conditions: GW501516 4 mg/kg daily IP, 2-4 weeks, vs vehicle
Description: Mice were housed in the Unit for Laboratory Animal Medicine at the Whitehead Institute for Biomedical Research and Koch Institute for Integrative Cancer Research. Lgr5-EGFP-IRES-CreERT2 mice (strain name: B6.129P2-Lgr5^tm1(cre/ERT2)Cle/J, stock number 008875), and Rosa26-lacZ mice (strain name: B6.129S4-Gt(ROSA)26Sor^tm1Sor/J, stock number 003474) were obtained from the Jackson Laboratory. […] Control mice were age-matched and fed normal chow ad libitum. GW501516 (Enzo) was reconstituted in DMSO at 4.5 mg ml^−1 and diluted 1:10 in a solution of 5% PEG400 (Hampton Research), 5% Tween80 (Sigma), 90% H2O for a daily intraperitoneal injection of 4 mg/kg.
As previously reported and briefly summarized here, small intestines were removed, washed with cold PBS−/−, opened laterally and cut into 3-5 mm fragments. Pieces were washed multiple times with cold PBS−/− until clean, washed 2-3 with PBS−/−/EDTA (10 mM), and incubated on ice for 90-120 minutes while mixing at 30-minute intervals. Crypts were then mechanically separated from the connective tissue by shaking, and filtered through a 70-μm mesh into a 50-ml conical tube to remove villous material and tissue fragments. At this point the suspension was mainly composed of crypts. […] For ISC isolation, the crypt suspensions were dissociated to individual cells with TrypLE Express (Invitrogen). Cell labeling consisted of an antibody cocktail comprising CD45-PE (eBioscience, 30-F1 1), CD31-PE (Biolegend, Mecl3.3), Ter119-PE (Biolegend, Ter119), CD24-Pacific Blue (Biolegend, M1/69), CD117-APC/Cy7 (Biolegend, 2BS), and EPCAM-APC (eBioscience, G8.8). ISCs were isolated as Lgr5-EGFP^hiEpcam^+CD24^low/−CD31^−Ter119 CD45^−7-AAD^−. EGFP^low progenitors were isolated as EGFP^lowEpcam^+CD24^low/−CD31^−Ter119^−CD45^−7-AAD^−, and Paneth cells were isolated as CD24^hiSidescatter^hiLgr5-EGFP^−Epcam^+CD31^−Ter119^−CD45^−7-AAD^− with a BD FACS Aria II SORP cell sorter into supplemented crypt culture medium for culture. Dead cells were excluded from the analysis with the viability dye 7-AAD (Life Technologies).

[3] = system: aged crypts; experiment: Stem cell frequency and organoid formation in aged mice
Experimental: Isolated ISCs or progenitor cells were centrifuged for 5 minutes at 250 g, re-suspended in the appropriate volume of crypt culture medium (500-1,000 cells μl^−1), then seeded onto 25-30 μl Matrigel™ (Corning 356231 growth factor reduced) containing 1 μM jagged (Ana-Spec) in a flat bottom 48-well plate (Corning 3548). Alternatively, ISCs and Paneth cells were mixed after sorting in a 1:1 ratio, centrifuged, and then seeded onto Matrigel™. The Matrigel™ and cells were allowed to solidify before adding 300 μl of crypt culture medium. The crypt media was changed every second or third day. Organoid bodies were quantified on days 3, 7 and 10 of culture, unless otherwise specified. With respect to the study results presented in FIGS. 14-16, organoid bodies were quantified on day 3-4. In secondary experiments, individual primary organoids were mechanically dissociated and re-plated, or organoids were dissociated for 10 minutes in TrypLE Express at 32° C., re-suspended with SMEM (Life Technologies), centrifuged and re-suspended in cold SMEM with viability dye 7-AAD. Live cells were sorted and seeded onto Matrigel™ as previously described. With respect to the study results presented in FIGS. 14-16, young mice were 2-4 months old. Old mice range from 18-25 months of age. The mice were on a standard chow diet. Mice received a single daily injection with the indicated amount of GW501516 or vehicle in the afternoon. Intestines were harvested the following morning.

[4] = system: β-catenin target genes; experiment: Single cell qPCR of β-catenin target genes; conditions: ISCs and progenitors from GW501516-treated mice
Experimental: For one-tube single-cell sequence-specific pre-amplification, individual primer sets of β-catenin target genes (total of 96) were pooled to 0.1 mM final concentration for each primer. Single cells were directly sorted into 96 well plates containing 5 ul RT-PCR master mix (2.5 ul CellsDirect reaction mix, Invitrogen; 0.5 ul primer pool; 0.1 ul RT/Taq enzyme, Invitrogen; 1.9 ul nuclease free water) in each well. Immediately after, plates were placed on PCR machine for pre-amplification. Sequence specific pre-amplification PCR protocol was as following: 1) 60 minutes at 50° C. for cell lyses and sequence specific reverse transcription, 2) 3 minutes at 95° C. for reverse transcriptase inactivation and Taq polymerase activation. Then, cDNA was amplified by 20 cycles of 15 seconds at 95° C. for initial denaturation, […] at 60° C. for annealing and elongation. After pre-amplification, samples were diluted 1:5 prior to high throughput microfluidic real time PCR analysis using Fluidgm platform. […] Threshold crossing (Ct) values were calculated using the BioMark Real-Time PCR Analysis software (Fluidgm). […] Fold-changes were calculated as the difference of median of log2 expression levels for the two cell populations. […]

## Cc1cc(SCc2sc(-c3ccc(C(F)(F)F)cc3)nc2C)ccc1OCC(=O)O [GW501516, 2-[2-methyl-4-[[4-methyl-2-[4-(trifluoromethyl)phenyl]-1,3-thiazol-5-yl]methylsulfanyl]phenoxy]acetic acid]
[1]
  PPAR-δ target proteins in ISCs and progenitors: strong induction; also recorded: upregulated
[2]; 4 mg/kg
  number of Lgr5-GFP^low progenitors: not in progenitor cells; also recorded: no effect
  number/frequency of Lgr5-GFP^hi ISCs: augmented; also recorded: selective increase; also recorded: doubled the number
[2]; listed as GW501515
  number/frequency of Lgr5-GFP^hi ISCs: sufficient to enhance
[3]; GW501516 vs old vehicle, day 3
  organoid formation of co-cultured ISCs and Paneth cells from aged animals: significantly boosts organoid formation
[3]; aged mice, GW501516 treatment
  frequency of organoid formation in aged crypts: increases the frequency of organoid formation
  frequency of stem cells: increases the frequency of stem cells
[4]
  transcription of β-catenin target genes (Bmp4, Jag1, Jag2, Edn3): induction
